Test results: patent publication US5514653A, “Method of blocking the SEC receptor” (Washington University, priority 1994, dated 1996)
Entries after “also recorded” stand apart in the source; their conditions may differ. Where two headings read alike, the source gives them in different places. No end group written: not given here.

Columns and labels:
[1] = biological target: substance P receptor (Homo sapiens, UniProt P25103); conditions: cited from earlier work
[2] = test system: PC12 cells; assay: MTT assay of neurotoxicity in PC12 cells; format: cell-based; conditions: for effect on MTT reduction: FIG. 1 and 2
Experimental: The MTT assay (19) was used to monitor the neurotoxicity of amyloid-β peptide. […] Inhibition of MTT reduction is a specific, early indicator of amyloid-β-mediated cytotoxicity. The PC12 cell line was used because it is the most well characterized cell line of neuronal origin and because previous studies have shown there is abundant expression of SEC receptor in this cell line.
(§1) First, the effect of amyloid-β 25-35 on MTT reduction in PC12 cells was examined (FIG. 1). PC12 cells were incubated for six (6) hours at 37° C. with amyloid-β 25-35 in several different concentrations as shown on the horizontal axis. MTT was added and the cells incubated at 37° C. for another two (2) hours. Cell extraction buffer was added and the incubation continued at 37° C. overnight. Cell extracts were then subjected to spectro-photometric analysis at 570 nm.
Second, the specificity of the effect of amyloid-β 25-35 on MTT reduction in PC12 cells was examined (FIG. 2).
(§2) In the MTT assay used herein, inhibition of cellular redox activity is measured by 3- 4,5-dimethylthiazol-2-yl!-2,5-diphenyltetrazolium bromide (MTT) by conventional procedures as described by Hansen et al. (19).

[3] = test system: neutrophils; conditions: cited from earlier work
[4] = test system: SEC receptor; conditions: cited from earlier work
[5] = test system: PC12 cells; assay: Inhibition of amyloid-β 25-35 neurotoxicity (MTT assay) in PC12 cells; format: cell-based; conditions: FIG. 3 and 4
From the text: The MTT assay (19) was used to monitor the neurotoxicity of amyloid-β peptide. […] Inhibition of MTT reduction is a specific, early indicator of amyloid-β-mediated cytotoxicity. The PC12 cell line was used because it is the most well characterized cell line of neuronal origin and because previous studies have shown there is abundant expression of SEC receptor in this cell line. Using ^125 I peptide 105Y there is specific, saturable binding.
as §1, with “[…] Results” for “Cell extracts”, “reported as percent control response as determined by the difference between control cells and cells lysed prior” for “then subjected”, “incubation with MTT. […]” for “spectro-photometric analysis at 570 nm.”
as §2

[6] = test system: neurons; conditions: cited from earlier work
[7] = test system: SEC receptor; assay: Competition for binding to the SEC receptor

Chain of substance P receptor (P25103 whole entry, species assumed): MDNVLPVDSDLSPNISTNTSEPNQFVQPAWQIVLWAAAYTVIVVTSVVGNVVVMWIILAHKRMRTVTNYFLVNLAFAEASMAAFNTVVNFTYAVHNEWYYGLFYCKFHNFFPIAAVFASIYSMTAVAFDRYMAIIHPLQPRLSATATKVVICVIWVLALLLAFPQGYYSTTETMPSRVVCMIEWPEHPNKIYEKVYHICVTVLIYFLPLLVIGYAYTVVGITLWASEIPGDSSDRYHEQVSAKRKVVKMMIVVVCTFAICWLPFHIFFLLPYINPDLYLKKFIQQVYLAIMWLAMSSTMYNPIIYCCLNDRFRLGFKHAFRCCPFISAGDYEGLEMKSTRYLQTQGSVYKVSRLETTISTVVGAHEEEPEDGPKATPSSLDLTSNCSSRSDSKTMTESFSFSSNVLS

CSCC[C@H](NC(=O)[C@H](CC(C)C)NC(=O)[C@H](Cc1cnc[nH]1)NC(=O)CNC(=O)[C@@H](NC(=O)[C@H](C)NC(=O)[C@H](Cc1c[nH]c2ccccc12)NC(=O)[C@H](CCC(N)=O)NC(=O)[C@H](CC(N)=O)NC(=O)CNC(=O)[C@H](CC(C)C)NC(=O)[C@H](CCCN=C(N)N)NC(=O)[C@H](CCC(N)=O)NC(=O)[C@@H]1CCC(=O)N1)C(C)C)C(N)=O [bombesin]
binding to / recognition by the substance P receptor [1]: does not recognize

IAGRSLNPNRVTLRYNKPFILVLFETPGNSLVFLGRISNPATK [PB145]
neurotoxic activity of the peptide by itself ([2]; peptide alone): did not have any neurotoxic activity by itself

amyloid-β
binding to / recognition by the substance P receptor [1]: does not recognize
binding to / recognition by the substance P receptor ([1]; listed as Amyloid-β): do not bind to the substance P receptor
neutrophil chemotactic effect [3]: neutrophil chemotactic effects
binding to / recognition by the SEC receptor [4]: bind to the SEC receptor

amyloid-β 1-28: region of the amyloid-β protein
effect on MTT reduction [2]: no effect

amyloid-β 1-40: region of the amyloid-β protein
effect on MTT reduction [2]: effect similar to that of amyloid-β 25-35

native α1-AT: native α1-antitrypsin, negative control
inhibition of the effect of amyloid-β 25-35 (neurotoxicity) [5]: does not

neurokinin B
binding to / recognition by the SEC receptor [4]: approximately similar affinities

substance K
binding to / recognition by the SEC receptor [4]: approximately similar affinities

substance P
desensitization of the SEC receptor on neutrophils to chemotactic effects of amyloid-β [3]: elicited homologous desensitization
neutrophil chemotactic effect [3]: neutrophil chemotactic effects
binding to / recognition by the SEC receptor [4]: bind to the SEC receptor; also recorded: approximately similar affinities
blocking of amyloid-β 25-35 effects on neurons [6]: blocked

α1 -AT-elastase complexes: complexes of α1-antitrypsin with elastase which compete for binding to the SEC receptor
competition for binding to the SEC receptor [7]: compete for binding to the SEC receptor
inhibition of the effect of amyloid-β 25-35 (neurotoxicity) [5]: inhibit the effect of amyloid-β 25-35
